How the values were obtained:
Type in all cases: cell-based
[1] = system: interleukin-8 (IL-8); test: IL-8 generation inhibition in normal human skin keratinocytes (ELISA); details: stimulation with PGSA / LPS, 24 hours
Procedure: One day before the testing, normal human skin keratinocytes (NHEK) purchased from Lonza are injected into a 96-well plate at a rate of 5×10^4 cells/well and cultured in an incubator under conditions of 5% CO2 and 37° C. for 24 hours. After 24 hours, the culture plate is washed with PBS twice, and the used culture medium is replaced with a serum-free keratinocyte basement medium. Ginsenoside F2 is injected into each well according to the concentration of Table 24 and allowed to react for 30 minutes. Then, the keratinocytes are treated separately with 10 μg/ml of PGSA, 50 μg/ml of PGSA, and a mixture of PGSA (50 μg/ml) and LPS (1 μg/ml). In this regard, PGSA (peptidoglycan from S. aureus) is stapylococcus-derived peptidoglycan that is a principal component of the cell membrane of gram-positive (+) bacteria, and the components of the cell membrane of bacteria are known to cause inflammation. Particularly, it is reported that about 90% of patients with atopic dermatitis are susceptible to secondary infection due to staphylococcus. LPS (lipopolysaccharide) is a principal component of the cell membrane of gram-negative (−) bacteria and reportedly a main cause of inflammation. After the keratinocytes are cultured in an incubator under conditions of 5% CO2 and 37° C. for 24 hours, the culture medium is collected and subjected to ELISA for interleukin-8 (IL-8). The ELISA is carried out according to the testing method as instructed by the manufacturer (BD Science).

[2] = biological target: T1, 5α-reductase (Homo sapiens, UniProt P31213); test: 5α-reductase activity inhibition, conversion of [14C]testosterone to DHT in HEK293-5α R2 cells; details: 2 hours
T1 construct: 3×FLAG; expressed in transfected cells; host or cells: HEK293
T1 sequence (P31213 1-254): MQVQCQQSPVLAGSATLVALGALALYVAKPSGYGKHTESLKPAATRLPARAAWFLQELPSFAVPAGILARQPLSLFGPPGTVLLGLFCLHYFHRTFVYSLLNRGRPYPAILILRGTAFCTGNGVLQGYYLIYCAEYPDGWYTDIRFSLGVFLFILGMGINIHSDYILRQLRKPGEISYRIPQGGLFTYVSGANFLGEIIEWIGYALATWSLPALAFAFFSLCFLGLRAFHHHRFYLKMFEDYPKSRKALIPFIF
Procedure: In order to evaluate the inhibitory effect on the activity of 5α-reductase, the conversion rate from [^14C]testosterone to [^14C]dihydrotestosterone (DHT) in HEK293-5α R2 cells is measured. P3×FLAG-CMV-5α R2 is transduced into HEK293 cells, which are cultured in a 24-well plate at a rate of 2.5×10^5 cells per well (Park et al., 2003, JDS. Vol. 31, pp. 191-98). The next day, the used culture medium is replaced with a new culture medium containing an enzyme substrate and an inhibitor. The substrate of the culture medium is 0.05 μCi [^14C]testosterone (Amersham Pharmacia Biotech, UK).
To evaluate the degree of 5α-reductase activity inhibition, the cells are treated with ginsenoside F2 and then cultured in a 5% CO2 incubator at 37° C. for 2 hours. In this regard, the negative control is the group not treated with ginsenoside F2, while the positive control is the group treated with finasteride. Subsequently, the culture medium is collected to extract steroids with 800 μl of ethylacetate, and the supernatant organic solvent phase is isolated and dried. The residue is dissolved in 50 μl of ethylacetate and developed on silica plastic sheet kieselgel 60 F254 using an ethylacetate-hexane (1:1) solvent.
The plastic sheet is dried out in the air and measured in regards to the abundance of isotope using a bath system. The dry plastic sheet together with an X-ray film is put in a bath cassette. After one week, the abundance of isotope of testosterone and dihydrotestosterone remaining on the film is measured to calculate the conversion rate and the inhibition rate according to the following mathematical formulas 5 and 6, respectively.

[3] = system: Candida albicans; test: Antibacterial effect, MIC; details: 48 hours, 25° C.
Procedure: (§1) The antibacterial testing is carried out in order to evaluate the antibacterial effect of ginsenoside F2. The detailed testing method is as follows. Staphylococcus aureus, Escherichia coli, and pseudomonas aeruginosa strains are cultured with a tryptic soy broth, and candida albicans and aspergillus niger strains are cultured with sabouraud dextrose broth. The test bacterial liquid is the 1/100 (1/10 for candida albicans strain) diluted solution of the culture medium diluted with each medium. For aspergillus niger, the test bacterial liquid is the spore suspension prepared to 2×10^8 cfu/ml. 0.15 ml of the test bacterial liquid is added to 15 ml of each culture medium to prepare a well-blended diluted solution. 16 μl of the sample is put into each well on the first row of a 96-well plate, and 184 μl of the diluted solution is added to each well on the first row. Then, 100 μl of the diluted solution is put into each of the other wells. The mixed solution of the first row is sufficiently stirred, and 100 μl of the mixed solution is added to each well on the second row of the 96-well plate and stirred sufficiently. 100 μl of the mixed solution on the second row is taken and added to each well on the third row to achieve two-fold serial dilution. Straphylococcus aureus, Escherichia coli, and Pseudomonas aeruginosa strains are cultured in a thermostat container at 32°, and Candida albicans and Aspergillus niger strains are cultured in a thermostat container at 25° C. 48 hours later, the cell proliferation is determined by the turbidity index and microscopic observation to determine the minimum inhibitory concentration (MIC).

[4] = system: Escherichia coli; test: Antibacterial effect, MIC; details: 48 hours, 32°
Procedure: as §1

[5] = system: Pseudomonas aeruginosa; test: Antibacterial effect, MIC; details: 48 hours, 32°
Procedure: as §1

[6] = system: Aspergillus niger; test: Antibacterial effect, MIC; details: 48 hours, 25° C.
Procedure: as §1

With `CC(C)=CCC[C@](C)(O[C@@H]1O[C@H](CO)[C@@H](O)[C@H](O)[C@H]1O)[C@H]1CC[C@]2(C)[C@@H]1[C@H](O)C[C@@H]1[C@@]3(C)CC[C@H](O[C@@H]4O[C@H](CO)[C@@H](O)[C@H](O)[C@H]4O)C(C)(C)[C@@H]3CC[C@]12C` [Ginsenoside F2, ginsenoside F2] the “IL-8 secretion” value ([1]; 5 ppm) was 1209.66 pg/mL, the “IL-8 secretion” value ([1]; 25 ppm) was 1118.80 pg/mL and the “IL-8 secretion” value ([1]; 50 ppm) was 1110.29 pg/mL. For the same compound, the “Inhibition rate (%)” value ([2]; 5α-reductase activity) was 59.7%, the “Conversion rate (%)” value ([2]; testosterone to dihydrotestosterone) was 15.4% and the “MIC (%) Candida albicans” value [3] was greater than 4%. For the same compound, the “MIC (%) Escherichia coli” value [4] was 0.13%, the “MIC (%) Pseudomonas aeruginosa” value [5] was 0.09% and the “MIC (%) Aspergillus niger” value [6] was greater than 2%.
